Where only a bound is given, the exact number is not on record here.

The subject of series [1] is TGF-β induced [14C]-proline incorporation in rat mesangial cells. Description: [14C]-proline incorporation assay (collagen biosynthesis). The series is classed as cell-based. To be noted: Rattus norvegicus, Mesangial cell, 44 h, inhibition of TGF-β1 (1 ng/ml) induced [14C]-proline incorporation, IRMC cells.
A short description of series [2]: MTS tetrazolium reduction cell viability assay. To be noted: rat, rat mesangial cells (1097/IRMC cells), TGF-β1 stimulated, CC50 (μM), vs 1% DMSO vehicle.

Usually IC50 stands for the concentration needed to halve the response being measured. A higher IC50 goes with weaker potency. As usually defined, the CC50 is the concentration giving 50% cytotoxicity. A high value points to lower toxicity to the cells. Turning to `COc1cc(/C=C/C(=O)Nc2ccccc2C(=O)O)ccc1OCCc1ccncc1` [Example 59, (E)-2-(3-(3-methoxy-4-(2-(pyridin-4-yl)ethoxy)phenyl)acrylamido)benzoic acid], the IC50 in series [1] worked out at 12.1 µM. Also, the 50% cytotoxic concentration (CC50) at 48 h in series [2] was found to be 148 µM.

As to `COc1cc(/C=C/C(=O)Nc2ccccc2C(=O)O)ccc1OCc1ccnn1C` [Example 60, (E)-2-(3-(3-methoxy-4-((1-methyl-1H-pyrazol-5-yl)methoxy)phenyl)acrylamido)benzoic acid], the IC50 in series [1] was determined as 20.3 µM. Besides, the cytotoxic concentration (CC50) at 48 h in series [2] was 100 µM.

In series [1], `COCCOc1cc(/C=C/C(=O)Nc2ccccc2C(=O)O)ccc1OC` [Example 61, (E)-2-(3-(4-methoxy-3-(2-methoxyethoxy)phenyl)acrylamido)benzoic acid] returned an IC50 of 48.9 µM. This compound also registered a CC50 at 48 h in series [2] of 276 µM.

In series [1], `COc1ccc(/C=C/C(=O)Nc2ccccc2C(=O)O)cc1OCCc1ccccn1` [Example 62, (E)-2-(3-(4-methoxy-3-(2-(pyridin-2-yl)ethoxy)phenyl)acrylamido)benzoic acid] had an IC50 of 49 µM. It took 321 µM to reach half-maximal cytotoxicity in series [2] (CC50 at 48 h).

As for `COc1ccc(/C=C/C(=O)Nc2ccccc2C(=O)O)cc1OCc1cccnc1` [Example 63, (E)-2-(3-(4-methoxy-3-(pyridin-3-ylmethoxy)phenyl)acrylamido)benzoic acid], half-maximal inhibition in series [1] (IC50) was put at 18.2 µM. The compound also returned a CC50 at 48 h in series [2] of 79.4 µM.

For `COc1ccc(/C=C/C(=O)Nc2ccccc2C(=O)O)cc1OCCc1cccnc1` [Example 64, (E)-2-(3-(4-methoxy-3-(2-(pyridin-3-yl)ethoxy)phenyl)acrylamido)benzoic acid], in series [1], half-maximal inhibition (IC50) required 14.2 µM. The compound further registered a half-maximal cytotoxic concentration (CC50) at 48 h in series [2] of 142 µM.

The compound `COc1ccc(/C=C/C(=O)Nc2ccccc2C(=O)O)cc1OCCc1ccncc1` [Example 65, (E)-2-(3-(4-methoxy-3-(2-(pyridin-4-yl)ethoxy)phenyl)acrylamido)benzoic acid] came in with an IC50 in series [1] of 18.3 µM. In series [2], the midpoint of cytotoxicity, the CC50 at 48 h, lay at 152 µM.

`COc1ccc(/C=C/C(=O)Nc2ccccc2C(=O)O)cc1OCc1cnn(C)c1` [Example 66, (E)-2-(3-(4-methoxy-3-((1-methyl-1H-pyrazol-4-yl)methoxy)phenyl)acrylamido)benzoic acid] showed an IC50 in series [1] of 17 µM. Also, the CC50 at 48 h in series [2] was above 300 µM.

Turning to `COc1ccc(/C=C/C(=O)Nc2ccccc2C(=O)O)cc1OCc1ccnn1C` [Example 67, (E)-2-(3-(4-methoxy-3-((1-methyl-1H-pyrazol-5-yl)methoxy)phenyl)acrylamido)benzoic acid], in series [1], half-maximal inhibition (IC50) required 23.5 µM. This compound also gave a CC50 at 48 h in series [2] of 144 µM.

In series [1], `COc1cc(/C=C/C(=O)Nc2ccccc2C(=O)O)ccc1CN1CCN(C)CC1` [Example 68, (E)-2-(3-(3-methoxy-4-((4-methylpiperazin-1-yl)methyl)phenyl)acrylamido)benzoic acid] registered an IC50 of 44.9 µM. The compound also came in with a CC50 at 48 h in series [2] above 300 µM.

Compound `COc1cc(/C=C/C(=O)Nc2ccccc2C(=O)O)ccc1CN1CCOCC1` [Example 69, (E)-2-(3-(3-methoxy-4-(morpholinomethyl)phenyl)acrylamido)benzoic acid] showed an IC50 in series [1] of 48.4 µM. In addition, it took 691 µM to reach half-maximal cytotoxicity in series [2] (CC50 at 48 h).

In series [1], `COc1ccc(/C=C/C(=O)Nc2ccccc2C(=O)O)cc1COC1CCN(C)CC1` [Example 70, (E)-2-(3-(4-methoxy-3-(((1-methylpiperidin-4-yl)oxy)methyl)phenyl)acrylamido)benzoic acid] returned an IC50 of 49.8 µM. This compound registered a CC50 at 48 h in series [2] above 300 µM.

In series [1], `C#CCOCc1cc(/C=C/C(=O)Nc2ccccc2C(=O)O)ccc1OC` [Example 71, (E)-2-(3-(4-methoxy-3-((prop-2-yn-1-yloxy)methyl)phenyl)acrylamido)benzoic acid] came in with an IC50 of 12.2 µM. In series [2], this compound registered a CC50 at 48 h of 116 µM.

For `C#CCOCc1ccc(/C=C/C(=O)Nc2ccccc2C(=O)O)cc1OC` [Example 72, (E)-2-(3-(3-methoxy-4-((prop-2-yn-1-yloxy)methyl)phenyl)acrylamido)benzoic acid], the IC50 in series [1] is 15 µM. For the same compound, the CC50 at 48 h in series [2] was above 300 µM.

Turning to `COCc1cc(/C=C/C(=O)Nc2ccccc2C(=O)O)ccc1OC` [Example 73, (E)-2-(3-(4-methoxy-3-(methoxymethyl)phenyl)acrylamido)benzoic acid], in series [1], the IC50 amounted to 33.1 µM. In series [2], this compound yielded a half-maximal cytotoxic concentration (CC50) at 48 h above 300 µM.

In series [1], `C#CCNCc1cc(/C=C/C(=O)Nc2ccccc2C(=O)O)ccc1OC` [Example 74, (E)-2-(3-(4-methoxy-3-((prop-2-yn-1-ylamino)methyl)phenyl)acrylamido)benzoic acid] showed an IC50 of 14.7 µM. In addition, the midpoint of cytotoxicity in series [2], the CC50 at 48 h, lay at 319 µM.

In series [1], `C#CCNCc1ccc(/C=C/C(=O)Nc2ccccc2C(=O)O)cc1OC` [Example 75, (E)-2-(3-(3-methoxy-4-((prop-2-yn-1-ylamino)methyl)phenyl)acrylamido)benzoic acid] gave an IC50 of 27.6 µM. For the same compound, in series [2], the CC50 at 48 h is above 300 µM.

On to `C#CCOc1ccc(/C=C/C(=O)Nc2cccc(C#N)c2)c(OCCN(C)C)c1OC` [Example 76, (E)-N-(3-cyanophenyl)-3-[2-[2-(dimethylamino)ethoxy]-3-methoxy-4-prop-2-ynoxy-phenyl]prop-2-enamide], for which the IC50 in series [1] stood at 14.9 µM. Moreover, in series [2], the CC50 at 48 h is 18.1 µM.

In turn, `C#CCOc1ccc(/C=C/C(=O)Nc2ccccc2C#N)c(OCCN(C)C)c1OC` [Example 77] came in with an IC50 in series [1] of 4.69 µM. The CC50 at 48 h in series [2] was 26.5 µM.

On to `C#CCOc1ccc(/C=C/C(=O)Nc2ccccc2C(=O)O)c(OCCN(C)C)c1OC` [Example 78, (E)-2-(3-(2-(2-(dimethylamino)ethoxy)-3-methoxy-4-(prop-2-yn-1-yloxy)phenyl)acrylamido)-benzoic acid], for which, in series [1], inhibition was half-maximal at 30.4 µM (IC50). Further, the midpoint of cytotoxicity in series [2], the CC50 at 48 h, lay at 404 µM.

On to `C#CCOc1ccc(/C=C/C(=O)Nc2ccccc2C#N)c(OC2CN(C)C2)c1OC` [Example 79, (E)-N-(2-cyanophenyl)-3-[3-methoxy-2-(1-methylazetidin-3-yl)oxy-4-prop-2-ynoxy-phenyl]prop-2-enamide], for which the IC50 in series [1] was 9.52 µM. Besides, half-maximal cytotoxicity in series [2] (CC50 at 48 h) was put at 23.4 µM.

Turning to `C#CCOc1ccc(/C=C/C(=O)Nc2ccccc2C(=O)O)c(OC2CCNC2)c1OC` (stereo not drawn) [Example 80, 2-[[(E)-3-(3-methoxy-4-prop-2-ynoxy-2-pyrrolidin-3-yloxyphenyl)prop-2-enoyl]amino]benzoic acid], it took 24.5 µM to reach half-maximal inhibition in series [1] (IC50). In addition, the CC50 at 48 h in series [2] was above 100 µM.

On to `C#CCOc1ccc(/C=C/C(=O)Nc2ccccc2C#N)c(OC2CCN(C)C2)c1OC` (stereo not drawn) [Example 81, (E)-N-(2-cyanophenyl)-3-[3-methoxy-2-(1-methylpyrrolidin-3-yl)oxy-4-prop-2-ynoxy-phenyl]prop-2-enamide], for which the midpoint of inhibition in series [1], the IC50, lay at 7.15 µM. This compound also showed a CC50 at 48 h in series [2] of 24.9 µM.

With `C#CCOc1ccc(/C=C/C(=O)Nc2ccccc2C#N)c(OC2CCNC2)c1OC` (stereo not drawn) [Example 82, (E)-N-(2-cyanophenyl)-3-(3-methoxy-4-prop-2-ynoxy-2-pyrrolidin-3-yloxy-phenyl)prop-2-enamide], it took 3.42 µM to reach half-maximal inhibition in series [1] (IC50). In addition, half-maximal cytotoxicity in series [2] (CC50 at 48 h) was put at 13.5 µM.

Turning to `C#CCOc1ccc(/C=C/C(=O)Nc2ccccc2C(=O)O)c(OC2CCNCC2)c1OC` [Example 83, 2-[[(E)-3-[3-methoxy-2-(4-piperidyloxy)-4-prop-2-ynoxy-phenyl]prop-2-enoyl]amino]benzoic acid], 32.5 µM corresponded to half-maximal inhibition in series [1] (IC50). Moreover, the 50% cytotoxic concentration (CC50) at 48 h in series [2] is above 300 µM.

As to `C#CCOc1ccc(/C=C/C(=O)Nc2ccccc2C(=O)O)c(OCCN2CCOCC2)c1OC` [Example 84, 2-[[(E)-3-[3-methoxy-2-(2-morpholinoethoxy)-4-prop-2-ynoxy-phenyl]prop-2-enoyl]amino]benzoic acid], in series [1], the IC50 amounted to 14.7 µM. The CC50 at 48 h in series [2] is above 300 µM.

`C#CCOc1ccc(/C=C/C(=O)Nc2ccccc2C#N)c(OCCN2CCOCC2)c1OC` [Example 85, (E)-N-(2-cyanophenyl)-3-[3-methoxy-2-(2-morpholinoethoxy)-4-prop-2-ynoxy-phenyl]prop-2-enamide]: in series [1], the IC50 is 8.92 µM. For the same compound, the CC50 at 48 h in series [2] is 109 µM.

On to `C#CCOc1ccc(/C=C/C(=O)Nc2ccccc2C(=O)O)c(OCCCN(C)C)c1OC` [Example 86, 2-[[(E)-3-[2-[3-(dimethylamino)propoxy]-3-methoxy-4-prop-2-ynoxy-phenyl]prop-2-enoyl]amino]benzoic acid], for which the IC50 in series [1] was determined as 24.9 µM. This compound showed a CC50 at 48 h in series [2] above 300 µM.

Take `C#CCOc1ccc(/C=C/C(=O)Nc2ccccc2C#N)c(OCCCN(C)C)c1OC` [Example 87, (E)-N-(2-cyanophenyl)-3-[2-[3-(dimethylamino)propoxy]-3-methoxy-4-prop-2-ynoxy-phenyl]prop-2-enamide]: the midpoint of inhibition in series [1], the IC50, lay at 3.69 µM. In series [2], this compound yielded a CC50 at 48 h of 12.1 µM.

In turn, `C#CCOc1ccc(/C=C/C(=O)Nc2ccccc2C#N)c(OC2CCNCC2)c1OC` [Example 88, (E)-N-(2-cyanophenyl)-3-[3-methoxy-2-(4-piperidyloxy)-4-prop-2-ynoxy-phenyl]prop-2-enamide] registered an IC50 in series [1] of 4.45 µM. Besides, the CC50 at 48 h in series [2] is 12.4 µM.

Compound `C#CCOc1ccc(/C=C/C(=O)Nc2ccccc2C#N)c(OC2CCN(C)CC2)c1OC` [Example 89, (E)-N-(2-cyanophenyl)-3-[3-methoxy-2-[(1-methyl-4-piperidyl)oxy]-4-prop-2-ynoxy-phenyl]prop-2-enamide] came in with an IC50 in series [1] of 4.66 µM. Also, in series [2], the CC50 at 48 h was 19.8 µM.

For the compound `COc1c(OCC2CC2)ccc(/C=C/C(=O)Nc2ccccc2C(=O)O)c1OCCN(C)C` [Example 90, 2-[[(E)-3-[4-(cyclopropylmethoxy)-2-[2-(dimethylamino)ethoxy]-3-methoxy-phenyl]prop-2-enoyl]amino]benzoic acid], 21.9 µM corresponded to half-maximal inhibition in series [1] (IC50). The CC50 at 48 h in series [2] is above 300 µM.

In turn, `COc1cccc(/C=C/C(=O)Nc2cccc(C#N)c2)c1OCCN(C)C` [Example 91, (E)-N-(3-cyanophenyl)-3-(2-(2-(dimethylamino)ethoxy)-3-methoxyphenyl)acrylamide] came in with an IC50 in series [1] of 8.38 µM. Also, the CC50 at 48 h in series [2] worked out at 18.1 µM.

For the origin of these results see patent publication US11603349B2, “Anti-fibrotic compounds” (Certa Therapeutics Pty Ltd, priority 2017, dated 2023).
